Tests used:
Rhopr-CRZR-α = assay: bioluminescence (calcium mobilizing) functional receptor assay, Rhopr-CRZR-α in CHOK1-aeq cells; type: cell-based, Rhodnius prolixus; details: for bioluminescence response (receptor activation): every 5 s over 15 s
Protocol: (§1) The ORF of the two Rhopr-CRZR variants were amplified and a Kozak translation initiation sequence was introduced at the 5′ end using primers listed in Supplementary Table 2. The resulting product was cloned into pGEM-T Easy vector and subcloned into pIRES2-ZsGreen1 (Clontech, Mountain View, CA, USA).
(§2) Chinese hamster ovary (CHO) cells stably expressing aequorin (CHOK1-aeq) (Paluzzi et al., [2010]) were cultured in complete media (94% Dulbecco's Modified Eagle Medium Nutrient Mixture F12-Ham (DMEM/F12) (Life Technologies Corporation, Carlsbad, CA, USA), 5% heat-inactivated fetal bovine serum (FBS), and 1% penicillin/streptomycin) containing 200 μg/mL Geneticin. The cells were incubated at 37°C in 5% CO2, and then transiently transfected with the expression vector for the receptor transcript variants using X-tremeGENE 9 DNA transfection reagent (Roche Applied Science, Indianapolis, IN, USA) at a ratio of 2:1 (transfection reagent to expression vector) using the manufacturer recommended protocol. Cells were also transiently transfected with an empty expression vector as a negative control.
(§3) The bioluminescence assay was performed 72 h post-transfection. The cells were first harvested with PBS/EDTA solution and suspended in bovine serum albumin BSA media (DMEM/F12 containing 1% BSA and 1% penicillin/streptomycin). The cells were incubated in the dark for 4–5 h at room temperature with 5 μM (final concentration) coelenterazine h (Promega, Madison, WI, USA) and then diluted 10-fold using BSA media. Various peptide concentrations were prepared with BSA media and loaded in triplicates on an opaque 96-well microplate. Cells were loaded into each well using an automated injector unit and luminescence was recorded over 15 s using a Wallac Victor2 plate reader (Perkin Elmer, San Diego, CA, USA). The peptides used were Rhopr-CRZ (pQTFQYSRGWTNamide), Rhopr-AKH (pQLTFSTDWamide), and Rhopr-ACP (pQVTFSRDWNAamide). Wells containing only the BSA media served as a blank control while wells containing 25, 50, and 100 μM ATP served as positive controls. Dose-response curves were obtained by averaging three replica plates and the EC50 values were determined using Prism5 software.

Rhopr-CRZR-β = assay: bioluminescence (calcium mobilizing) functional receptor assay, Rhopr-CRZR-β in CHOK1-aeq cells; type: cell-based, Rhodnius prolixus; details: for bioluminescence response (receptor activation): every 5 s over 15 s
Protocol: as §1, §2, §3

[1] = test system: dorsal vessel of adult R. prolixus; assay: heartbeat assay in vitro; design: species or system Rhodnius prolixus; details: 10^−8 M Rhopr-CRZ; for increase in heartbeat frequency in vitro: compared to saline, n = 5
Protocol: Adult R. prolixus were anesthetized briefly with CO2 and injected with 2 μL of 2 μg/μL of dsCRZR or dsARG into the thorax using a 5 μL Hamilton syringe. Insects were left for 30 min at room temperature to recover and then kept in an incubator at 28°C on a 16 h: 8 h light/dark cycle. To determine knockdown efficiency, qPCR was performed 3 days post-injection.
Adult R. prolixus injected 3 days earlier with either dsCRZR or dsARG were dissected from the ventral surface under physiological saline (150 mM NaCl, 8.6 mM KCl, 2 mM CaCl2, 4 mM NaHCO3, and 8.5 mM MgCl2, 5 mM HEPES, pH 7.0). The digestive and reproductive systems were removed to expose the dorsal vessel. Electrodes attached to an impedance converter (UFI model 2991, Morro Bay, CA, USA) were positioned on either side of the dorsal vessel between the sixth and fifth abdominal segments. The heartbeat frequency was left to stabilize in 50 μL saline and the frequency of heartbeat measured from the traces recorded on a linear Flat-bed single channel chart recorder. The saline was then exchanged for 50 μL of 10^−8 M CRZ and the heartbeat frequency was again measured. The response to 10^−8 M CRZ was quantified by measuring the increase in heartbeat frequency compared to saline control.

Periplaneta americana = test system: Periplaneta americana; design: method as in Veenstra, [1989]; details: cockroach Periplaneta americana; ref Veenstra, [1989]; cited from earlier work
Manduca sexta = test system: Manduca sexta; design: method as in Kim et al., [2004]; details: ref Kim et al., [2004]; cited from earlier work
Galleria mellonella = test system: Galleria mellonella; design: method as in Hua et al., [2000]; Hansen et al., [2010]; details: ref Hua et al., [2000], Hansen et al., [2010]; cited from earlier work
Gryllus bimaculatus = test system: Gryllus bimaculatus; design: method as in Hua et al., [2000]; Hansen et al., [2010]; details: ref Hua et al., [2000], Hansen et al., [2010]; cited from earlier work
Bombyx. mori = test system: Bombyx. mori; design: method as in Hua et al., [2000]; Hansen et al., [2010]; details: ref Hua et al., [2000], Hansen et al., [2010]; cited from earlier work
5th instar R. prolixus = details: in vitro in 5th instar R. prolixus; ref Patel et al., [2014]; cited from earlier work
Excerpt: The percent knockdown of Rhopr-CRZR transcript after injection of dsCRZR into adult R. prolixus was quantified by qPCR in the dorsal vessel. […] The physiological effects of this decrease in Rhopr-CRZR on heartbeat frequency was studied in vivo and in vitro in adult R. prolixus.

Substance: pQLTFSTDWamide [Rhopr-AKH, R. prolixus adipokinetic hormone, pQLTFSTDWamide, reference compound]
- bioluminescence response (receptor activation) (Rhopr-CRZR-α; Rhopr-CRZR-α, 10^−6 M, n = 3): without effect
- bioluminescence response (receptor activation) (Rhopr-CRZR-β; Rhopr-CRZR-β, 10^−6 M, n = 3): without effect

Substance: pQTFQYSRGWTNamide [Rhopr-CRZ, Rhodnius prolixus corazonin neuropeptide, p…amide]
- EC50 (Rhopr-CRZR-α; Rhopr-CRZR-α transiently expressed in CHOK1-aeq cells, coelenterazine h luminescence over 15 s, 72 h post-transfection, triplicates, three replica plates averaged): 2.7 nM
- time of maximum luminescence (Rhopr-CRZR-α; Rhopr-CRZR-α, during the first 5 s following activation, 10^−6 M, n = 3): ≤ 5 s
- EC50 (Rhopr-CRZR-β; Rhopr-CRZR-β transiently expressed in CHOK1-aeq cells, coelenterazine h luminescence over 15 s, 72 h post-transfection, triplicates, three replica plates averaged): 1 nM
- time of maximum luminescence (Rhopr-CRZR-β; Rhopr-CRZR-β, during the first 5 s following activation, 10^−6 M, n = 3): ≤ 5 s
- increase in heartbeat frequency in vitro ([1]; dsARG injected adults, vs dsCRZR unpaired t-test p = 0.0096): 7.33 ± 0.8 beats/min
- heartbeat rate in vitro (in words) ([1]; dsARG injected insects, unpaired t-test p = 0.0096): significantly increased the heartbeat rate
- increase in heartbeat frequency in vitro ([1]; dsCRZR injected adults, vs dsARG unpaired t-test p = 0.0096): 2 ± 0.9 beats/min
- heartbeat rate (Periplaneta americana): increases the heartbeat rate
- ecdysis behavior (Manduca sexta): initiate ecdysis behavior
- dark body coloration (Galleria mellonella): did not have such an effect
- dark body coloration (Gryllus bimaculatus): did not have such an effect
- dark body coloration (Bombyx. mori): did not have such an effect
- heartbeat frequency (5th instar R. prolixus): increase heartbeat frequency in a dose-dependent manner

Substance: pQVTFSRDWNAamide [Rhopr-ACP, R. prolixus AKH/CRZ-related peptide, p[…]amide, reference compound]
- bioluminescence response (receptor activation) (Rhopr-CRZR-α; Rhopr-CRZR-α, 10^−6 M, n = 3): without effect
- bioluminescence response (receptor activation) (Rhopr-CRZR-β; Rhopr-CRZR-β, 10^−6 M, n = 3): without effect
